Reference: patent US20220160666A1, “COMPOSITIONS FOR USE IN SURGERY” (BTG INTERNATIONAL LIMITED, priority 2004, published 2022)

Legend:
[1] = tested on: brain field potentials (EEG power spectrum); conditions: rats, cited from earlier work; for change of EEG theta, alpha1,2 and beta1,2 power: α2-adrenoceptor agonists, Dimpfel and Schober, 2001; for change of EEG alpha1,2 and beta1,2 power: general anaesthetics, Dimpfel, 2003
[2] = tested on: electrical activity of the human brain; experiment: Quantitative EEG (CATEEM) during and after 24 h intravenous infusion in healthy male volunteers, placebo-controlled crossover; assay type: in vivo; conditions: 300 mg/kg iv over 24 h
Text: The present inventors have now studied the effect of ketosis, in the exemplified case induced by administration of sodium salt of (R)-3-hydroxybutyrate (herein referred to as KTX 0101) as a single intravenous infusion of increasing dose and duration to 3 groups (Parts A, B and C) with 3 cohorts of 3 subjects each in Part A, and 1 cohort in each of Parts B (n=3) and C (n=8). Parts A and B were a partial crossover design and Part C was a crossover design. For details see protocol.
A 17-electrode EEG was recorded pre-dose and at 6, 12 and 24 h during the infusion and 1 and 24 hours following the end of drug administration. Recordings were performed under two physiological conditions, namely with 5 minutes eyes open and eyes closed, respectively. KTX 0101 was administered intravenously at a dose of 300 mg/kg given over 24 hours to 1 cohort (n=8) in a double blind placebo controlled crossover design (Part C of the study).
Single rising doses of KTX 0101 or placebo were administered to groups of healthy male volunteers according to a pre-specified dose escalation schedule (see main report). Incremental doses were administered in a stepwise manner proceeding to each higher dose only if the drug was well tolerated and the criteria for stopping dosing had not been met. The last two cohorts obtained the highest doses of 300 mg/kg and consisted of enough volunteers to justify a preliminary evaluation of recorded EEG data in order to obtain information on the pharmacodynamic effects of the potential drug. After recording of pre dose values the infusion was started and continued for 24 hours. EEG recordings took place during the infusion (6, 12 and 24 h) and 1 and 24 h after the end of the infusion. Each recording period was performed under 5 minutes eyes open and 5 minutes of eyes closed condition.
The EEG was recorded bipolarly from 17 surface electrodes according to the international 10/20 system with Cz as a physical reference electrode (Computer aided topographical electro-encephalo-metry: CATEEM® from MediSyst GmbH, 35440 Linden, Germany), using an electrocap. The raw signals were amplified, digitized (2048 Hz/12 bit) and transmitted via fiber optical devices to the computer. […] ECG and EOG were recorded in one channel each in order to facilitate detection of those signals superposing on to the EEG. […] The amount of rejected data was determined automatically and given in percent of total recording time. […] The data was recorded under two physiological conditions over a period of 5 minutes each (eyes open and eyes closed).
Using a Lagrange interpolation, signals from 82 additional virtual electrodes were calculated to provide high resolution topographical maps. […] Data were analysed from 0.86 to 35 Hz using the CATEEM® software. […]

Compound | change of EEG theta, alpha1,2 and beta1,2 power [1] | change of EEG alpha1,2 and beta1,2 power [1] | other results
CC(Oc1c(Cl)cccc1Cl)C1=NCCN1 (single isomer, unassigned; (-)) [(-)lofexidine] | Combined increases in theta, alpha1,2 and beta1,2 power | – | –
C[C@@H](O)CC(=O)[O-].[Na+] [KTX 0101, sodium salt of (R)-3-hydroxybutyrate] | – | – | time after end of infusion up to which EEG changes could be traced [2]: up to 24 hours; change of EEG electrical power relative to pre-drug values ([2]; averaged over 15 electrode positions, during and after infusion): increases of electrical power were observed, especially with respect to theta, alpha and beta power; change of EEG electrical power relative to pre-dose values ([2]; eyes closed, centro-parietal regions, theta, alpha1, alpha2 and beta 1 ranges): increases of electrical power could be observed for the 6 h time period, less for the 12 h period but consistently thereafter; change of EEG electrical power relative to pre-dose values ([2]; eyes open, single electrode positions (FIG. 1)): an increase of delta and theta power as well as of alpha power is observed
Clc1cccc(Cl)c1N=C1NCCN1 [clonidine] | Combined increases in theta, alpha1,2 and beta1,2 power | – | –
FC(F)OC(F)C(F)(F)F (stereo not shown) [desflurane] | – | combined increases in alpha1,2 and beta1,2 power | –
FC(F)OC(F)(F)C(F)Cl (stereo not shown) [enflurane] | – | combined increases in alpha1,2 and beta1,2 power | –
N=C(N)NC(=O)Cc1c(Cl)cccc1Cl [guanfacine] | Combined increases in theta, alpha1,2 and beta1,2 power | – | –
FC(F)(F)C(Cl)Br (stereo not shown) [halothane] | – | combined increases in alpha1,2 and beta1,2 power | –
COc1nc(C)nc(Cl)c1N=C1NCCN1 [maxonidine] | Combined increases in theta, alpha1,2 and beta1,2 power | – | –
Cc1cccc(C(C)c2c[nH]cn2)c1C (stereo not shown) [metedomidine] | Combined increases in theta, alpha1,2 and beta1,2 power | – | –
isoflurothane | – | combined increases in alpha1,2 and beta1,2 power | –
